What was measured:
full-length HAQ STING = full-length HAQ STING (Homo sapiens (Human), UniProt Q86WV6, G230A/H232R/R293Q/R71H); experiment: 3H-cGAMP filtration binding assay (HAQ STING); conditions: competition with tritiated cGAMP, HAQ STING membrane
Text: The ability of compounds to bind STING is quantified by the ability to compete with tritiated cGAMP ligand for human STING receptor membrane using a radioactive filter-binding assay. The binding assay employs STING receptor obtained from Hi-Five cell membranes overexpressing full-length HAQ STING prepared in-house and tritiated cGAMP ligand also purified in-house.
(§1) The ability of compounds to bind STING is quantified by their ability to compete with tritiated cGAMP ligand for human STING receptor membrane using a radioactive filter-binding assay. The binding assay employs STING receptor obtained from Trichoplusia ni cell membranes (T. ni; Expression Systems, cat #94-002F, www.exressionsystems.com) overexpressing full-length HAQ STING and tritiated cGAMP ligand.
The basic HAQ STING filtration assay protocol is as follows:
Compound and membrane then preincubated for 60 min at RT to allow compound binding to equilibrate. Following equilibration, 8 nM of [^3H]c-GAMP ligand was prepared by diluting into assay buffer, and 50 uL of this working stock was then manually added to each well of the assay plate. […] The filter plates were then dried at 55° C. for 30 min using a pressurized oven before 30 uL of ULTIMA GOLD F scintillate was added to each well. Tritium levels for each reaction well were then measured using a PerkinElmer TopCount plate reader.
(§2) After normalization to controls, the percent activity for each compound concentration was calculated by measuring the amount of remaining radioactivity. The plot of percent activity versus the log of compound concentration was fit with a 4-parameter dose response equation to calculate EC50 values.

THP1 cells = experiment: IFN-β secretion in THP1 cell culture (5 h); assay type: cell-based, human; conditions: relative to 30 uM cGAMP
Protocol: The ability of compounds to stimulate the secretion of interferon-beta from THP1 cells was measured using a human IFN-3 AlphaLISA kit (Perkin Elmer, Cat. No. AL265F). The basic protocol is as follows:
The cell viability and count was ascertained using a Beckman Coulter V-Cell XR cell counter. The cells suspension was centrifuged at 200×g for 5 min at RT. Cells were resuspended to a density of 0.8×10^6/mL in 37° C. assay medium. Subsequent liquid transfers were performed using either a Matrix electronic multichannel pipette or an Agilent Bravo Automated Liquid Handling Platform.
The assay was started by dispensing 40 μL of the previously prepared cell suspension into the wells of the plate containing compounds. After 5 h incubation at 37° C., 5% CO2 in a humidified atmosphere, the plate of cells and compounds was centrifuged at 200×g for 5 min at RT. […] To these supernatant-containing wells was added 10 μL of 5× Anti-Analyte Acceptor beads ([…] of AlphaLISA HiBlock Buffer) and incubated for 30 min at RT while shaking on an orbital plate shaker. To each well was added 10 μL of 5× Biotinylated Antibody Anti-analyte (5 nM in AlphaLISA HiBlock Buffer) and incubated on an orbital plate shaker for 60 min at RT or overnight at 4° C. To each well was added 25 μL of 2× SA-Donor beads ([…] in AlphaLISA HiBlock Buffer) and incubated for 30-45 min at RT in the dark while shaking on an orbital plate shaker. The plate was then read on a Perkin Elmer Envision (λex=680 nm, […]). The percent effect of the AlphaLISA signal at each compound concentration was calculated based on 30 uM cGAMP positive controls and 0.3% DMSO negative controls. The plot of percent effect versus the log of compound concentration was fit with a 4-parameter concentration response equation to calculate EC50 values.
Compounds of the disclosure were evaluated for IFN-3 secretion in THP1 cell culture as described above.

full-length WT STING = full-length WT STING (Homo sapiens (Human), UniProt Q86WV6, H232R); experiment: 3H-cGAMP filtration binding assay (WT STING); conditions: for EC50: competition with tritiated cGAMP, WT STING membrane; for inhibition at 20 µM: WT STING, compound at 20 uM
Text: as §1, with “www.expressionsystems.com)” for “www.exressionsystems.com)”, “WT” for “HAQ”
The basic WT STING filtration assay protocol is as follows:
The filter plates were then dried at 55° C. for 30 min using a pressurized VWR oven before 30 uL of ULTIMA GOLD F scintillate was added to each well. Tritium levels for each reaction well were then measured using a PerkinElmer TopCount plate reader.
as §2

Chain of full-length WT STING (Q86WV6 other isoform, or with tags, fused parts or gaps H232R (already in the parent)): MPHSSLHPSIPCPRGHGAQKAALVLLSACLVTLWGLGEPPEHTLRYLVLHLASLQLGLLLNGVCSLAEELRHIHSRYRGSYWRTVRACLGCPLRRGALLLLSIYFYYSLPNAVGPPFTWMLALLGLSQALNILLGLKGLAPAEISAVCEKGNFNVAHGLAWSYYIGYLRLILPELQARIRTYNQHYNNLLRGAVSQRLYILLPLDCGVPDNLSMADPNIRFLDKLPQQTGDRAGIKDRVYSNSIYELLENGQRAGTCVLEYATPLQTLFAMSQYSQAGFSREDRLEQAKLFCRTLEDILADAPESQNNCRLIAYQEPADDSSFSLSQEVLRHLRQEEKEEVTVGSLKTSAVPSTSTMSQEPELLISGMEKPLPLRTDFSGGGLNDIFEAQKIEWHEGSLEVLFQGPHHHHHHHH
Chain of full-length HAQ STING (Q86WV6 other isoform, or with tags, fused parts or gaps, stated change not applied): as the sequence (Q86WV6 other isoform, or with tags, fused parts or gaps H232R (already in the parent)) above, with R71H, G230A, R293Q counted along it

| SMILES | EC50 (full-length HAQ STING) | % Effect at 30 μM relative to 2’3’-cGAMP (THP1 cells) | EC50 (full-length WT STING) | inhibition at 20 µM (full-length WT STING) |
| --- | --- | --- | --- | --- |
| COc1cc2sc(C(=O)[C@@H]3C[C@@H]3C(=O)O)cc2cc1Br (single isomer, unassigned) [Example 5, 2-(5-bromo-6-methoxybenzo[b]thiophene-2-carbonyl)cyclopropane-1-carboxylic acid] | 1140 nM | 77% |  |  |
| COc1cc2sc(C(=O)[C@H]3C[C@H]3C(=O)O)cc2cc1Br (single isomer, unassigned) [Example 6, 2-(5-bromo-6-methoxybenzo[b]thiophene-2-carbonyl)cyclopropane-1-carboxylic acid] | 703 nM | 130% |  |  |
| CCC(CC(=O)c1cc2cc(OC)c(OC)cc2s1)C(=O)O (centres unmarked) [Example 1, 4-(5,6-dimethoxybenzo[b]thiophen-2-yl)-2-ethyl-4-oxobutanoic acid] | 3400 nM | 144% | 5.17 µM |  |
| COc1cc2cc(C(=O)CC(C(=O)O)C(C)C)sc2cc1OC (centres unmarked) [Example 2, 4-(5,6-Dimethoxybenzo[b]thiophen-2-yl)-2-isopropyl-4-oxobutanoic acid] | 9590 nM | 149% | 11.2 µM |  |
| COc1cc2cc(C(=O)CC(C(=O)O)C3CC3)sc2cc1OC (centres unmarked) [Example 3, 2-Cyclopropyl-4-(5,6-dimethoxybenzo[b]thiophen-2-yl)-4-oxobutanoic acid] | 10600 nM | 59% |  | 41% |
| COc1cc2cc(C(=O)C3CC3C(=O)O)sc2cc1OC (centres unmarked) [Example 4, 2-(5,6-Dimethoxybenzo[b]thiophene-2-carbonyl)cyclopropane carboxylic acid] | 1900 nM | 34% | 1.14 µM |  |
| COc1cc2sc(C(=O)CCC(=O)O)cc2cc1Cl [Example 7, 4-(5-Chloro-6-methoxybenzo[b]thiophen-2-yl)-4-oxobutanoic acid] | 9340 nM | 290% |  | 20% |
| C=Cc1cc2sc(C(=O)CCC(=O)O)cc2cc1OC [Example 8, 4-(5-Methoxy-6-vinylbenzo[b]thiophen-2-yl)-4-oxobutanoic acid] | 6770 nM | 260% | 15.5 µM |  |
| COc1cc2cc(C(=O)CCC(=O)O)sc2cc1Br [Example 9, 4-(6-Bromo-5-methoxybenzo[b]thiophen-2-yl)-4-oxobutanoic acid] | 2580 nM | 298% | 10.9 µM |  |
| CNc1cc2cc(C(=O)CCC(=O)O)sc2cc1OC [Example 10, 4-(6-Methoxy-5-(methylamino)benzo[b]thiophen-2-yl)-4-oxobutanoic acid] | 14000 nM | 182% |  | 31% |
| COc1cc2cc(C(=O)C[C@H](C)C(=O)O)sc2cc1OC [Example 11, (S)-4-(5,6-Dimethoxybenzo[b]thiophen-2-yl)-2-methyl-4-oxobutanoic acid] | 2740 nM | 132% | 3.87 µM |  |
| COc1cc2cc(C(=O)CCC(=O)OC(C)(C)C)sc2cc1OC [Example 12, tert-butyl 4-(5,6-dimethoxybenzo[b]thiophen-2-yl)-4-oxobutanoate] |  | 16% |  |  |
| COc1cc2sc(C(=O)C[C@H](C)C(=O)O)cc2c(F)c1OC [Example 13, (S)-4-(4-fluoro-5,6-dimethoxybenzo[b]thiophen-2-yl)-2-methyl-4-oxobutanoic acid] | 1380 nM | 228% | 2.08 µM |  |
| COc1cc2sc(C(=O)CCC(=O)O)cc2c(F)c1OC [Example 14, 4-(4-fluoro-5,6-dimethoxybenzo[b]thiophen-2-yl)-4-oxobutanoic acid] |  | 394% |  |  |
| COc1cc2cc(C(=O)C[C@H](C)C(=O)O)sc2cc1Br [Example 15, (S)-4-(6-bromo-5-methoxybenzo[b]thiophen-2-yl)-2-methyl-4-oxobutanoic acid] | 894 nM | 115% | 0.894 µM |  |
| COc1cc2cc(C(=O)CCC(=O)O)sc2cc1OC [Example 16, 4-(5,6-dimethoxybenzo[b]thiophen-2-yl)-4-oxobutanoic acid] | 1720 nM | 129% | 2.48 µM |  |
| CNc1cc2sc(C(=O)C[C@H](C)C(=O)O)cc2cc1OC [Example 37, (S)-4-(5-methoxy-6-(methylamino)benzo[b]thiophen-2-yl)-2-methyl-4-oxobutanoic acid] | 5610 nM | 42% |  |  |
| COc1cc2cc(C(=O)C[C@H](C)C(=O)O)sc2cc1SC [Example 38, (S)-4-(5-methoxy-6-(methylthio)benzo[b]thiophen-2-yl)-2-methyl-4-oxobutanoic acid] | 1930 nM | 154% |  |  |
| C=Cc1cc2cc(C(=O)[C@@H]3C[C@@H]3C(=O)O)sc2cc1OC [Example 39, (1S,2R)-2-(6-methoxy-5-vinylbenzo[b]thiophene-2-carbonyl)cyclopropane-1-carboxylic acid] | 1150 nM | 193% |  |  |
| COc1cc2sc(C(=O)C3CC3C(=O)O)cc2cc1SC (centres unmarked) [Example 40, 2-(6-methoxy-5-(methylthio)benzo[b]thiophene-2-carbonyl)cyclopropane-1-carboxylic acid] | 3940 nM | 93% |  |  |
| COc1cc2cc(C(=O)C[C@H](C)C(=O)O[C@H]3CSSC[C@@H]3O)sc2cc1OC [Example 42, (S)-(4R,5R)-5-hydroxy-1,2-dithian-4-yl 4-(5,6-dimethoxybenzo[b]thiophen-2-yl)-2-methyl-4-oxobutanoate] | 759 nM | 6% |  |  |
| CCCc1cc2sc(C(=O)C[C@H](C)C(=O)O)cc2cc1OC [Example 44, (2S)-4-(5-methoxy-6-propyl-1-benzothiophen-2-yl)-2-methyl-4-oxobutanoic acid] | 15700 nM | 20% |  |  |
| COc1cc2cc(C(=O)CCC(=O)O)sc2cc1CCF [Example 45, 4-[6-(2-fluoroethyl)-5-methoxy-1-benzothiophen-2-yl]-4-oxobutanoic acid] | 14700 nM | 104% |  |  |
| CCCc1cc2cc(C(=O)C[C@H](C)C(=O)O)sc2cc1OC [Example 47, (2S)-4-(6-methoxy-5-propyl-1-benzothiophen-2-yl)-2-methyl-4-oxobutanoic acid] | 5060 nM | 90% |  |  |
| CCCC(CC(=O)c1cc2cc(OC)c(OC)cc2s1)C(=O)O (centres unmarked) [Example 49, 2-(2-(5,6-dimethoxybenzo[b]thiophen-2-yl)-2-oxoethyl)pentanoic acid] | 2720 nM | 111% |  |  |
| COc1cc2sc(C(=O)C[C@H](C)C(=O)O)cc2c2nc(C)oc12 [Example 54, (S)-4-(4-methoxy-2-methylthieno[2′,3′:5,6]benzo[1,2-d]oxazol-7-yl)-2-methyl-4-oxobutanoic acid] | 531 nM | 66% |  |  |
